Experimental data: patent US9428536B2, “Immunostimulatory G, U-containing oligoribonucleotides” (Zoetis Belgium SA, priority 2002, dated 2016)

Target: T1, human TLR7 (Homo sapiens, UniProt Q9NYK1)
T1 construct: All full-length TLR fragments were cloned into pGEM-T Easy vector; expressed in transfected cells; host or cells: 293 HEK cells (ATCC), transient electroporation with pcDNA3.1(-) TLR expression plasmid
T1 sequence (Q9NYK1 27-1049): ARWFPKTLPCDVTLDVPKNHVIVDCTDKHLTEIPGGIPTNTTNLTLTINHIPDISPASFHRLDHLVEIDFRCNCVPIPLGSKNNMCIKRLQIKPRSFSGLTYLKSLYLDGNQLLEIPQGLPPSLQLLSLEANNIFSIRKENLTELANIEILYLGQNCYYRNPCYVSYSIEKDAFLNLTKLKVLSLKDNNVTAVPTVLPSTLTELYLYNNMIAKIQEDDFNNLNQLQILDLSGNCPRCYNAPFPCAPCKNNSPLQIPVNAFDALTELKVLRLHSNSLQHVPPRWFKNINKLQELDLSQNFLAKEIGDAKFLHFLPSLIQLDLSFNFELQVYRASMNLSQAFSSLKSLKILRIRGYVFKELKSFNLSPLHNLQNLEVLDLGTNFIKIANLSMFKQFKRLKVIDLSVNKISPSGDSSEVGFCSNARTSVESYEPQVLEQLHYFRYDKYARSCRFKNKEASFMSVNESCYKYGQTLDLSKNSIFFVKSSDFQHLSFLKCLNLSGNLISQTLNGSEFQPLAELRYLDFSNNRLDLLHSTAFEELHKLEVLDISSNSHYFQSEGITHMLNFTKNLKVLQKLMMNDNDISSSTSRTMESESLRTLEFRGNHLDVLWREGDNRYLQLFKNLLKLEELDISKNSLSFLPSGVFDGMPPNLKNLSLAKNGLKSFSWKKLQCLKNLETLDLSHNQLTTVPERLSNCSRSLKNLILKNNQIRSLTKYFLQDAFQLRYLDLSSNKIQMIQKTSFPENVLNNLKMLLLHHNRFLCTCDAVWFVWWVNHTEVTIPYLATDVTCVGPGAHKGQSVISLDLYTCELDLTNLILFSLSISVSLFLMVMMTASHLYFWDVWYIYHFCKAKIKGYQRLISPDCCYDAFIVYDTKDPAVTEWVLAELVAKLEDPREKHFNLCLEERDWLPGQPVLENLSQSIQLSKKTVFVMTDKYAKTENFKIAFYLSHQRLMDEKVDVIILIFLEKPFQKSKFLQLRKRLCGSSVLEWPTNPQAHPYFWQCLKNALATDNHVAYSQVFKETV
Assay: NF-κB luciferase reporter in 293 HEK cells transfected with human TLR7
Format: cell-based
Conditions: FIG. 12; transient transfectants; 7 hours stimulation
Protocol: FIG. 12 depicts the responsiveness of human TLR7 and human TLR8 to ribonucleosides. It was determined that the response by human PBMC to RNA or RVC was mediated by TLR7 or TLR8 and further that the response could be driven by ribonucleosides only. Human 293 cells were either mock-transfected or transfected with human TLR7 or human TLR8 and monitored for responsiveness to ribonucleosides. The open reading frames of human TLR7 (hTLR7) and human TLR8 (hTLR8) were amplified by PCR from a cDNA library of human PBMC using the following primers pairs: for TLR7, 5′-[…]-3′ (SEQ ID NO:15) and 5′-[…]-3′ (SEQ ID NO:16); and for TLR8, 5′-[…]-3′ (SEQ ID NO:17) and 5′-[…]-3′ (SEQ ID NO:18). The sequence information for primer selection was obtained from Genbank accession numbers AF240467 and AF245703. All full-length TLR fragments were cloned into pGEM-T Easy vector (Promega, Mannheim, Germany), excised with NotI, cloned into the expression vector pcDNA 3.1(−) (Invitrogen, Karlsruhe, Germany) and sequenced. Sequences of the coding region of hTLR7 and hTLR8 correspond to the accession numbers AF240467 (SEQ ID NO:25) and AF245703, respectively (SEQ ID NO:29).
For monitoring transient NF-κB activation, 3×10^6 293 HEK cells (ATCC, VA, USA) were electroporated at 200 volt and 960 μF with 1 μg TLR expression plasmid, 20 ng NF-κB luciferase reporter-plasmid and 14 μg of pcDNA3.1(−) plasmid as carrier in 400 μl RPMI medium supplemented with 25% fetal bovine serum (FCS). Cells were seeded at 10^5 cells per well and after over night culture stimulated with R-848 (denoted in FIG. 12 as X; commercially synthesized by GLSynthesis Inc., Worcester, Mass., USA), RVCs or ribonucleosides for a further 7 hours. Stimulated cells were lysed using reporter lysis buffer (Promega, Mannheim, Germany), and lysate was assayed for luciferase activity using a Berthold luminometer (Wildbad, Germany).

CCOCc1nc2c(N)nc3ccccc3c2n1CC(C)(C)O [R-848, 4-amino-α,α-dimethyl-2-ethoxymethyl-1H-imidazo[4,5-c]quinoline-1-ethanol, reference compound]
response of TLR7 transfectants (NF-κB luciferase): responded
